Results taken from PMC2680961, “Homologous desensitization of signalling by the alpha (α) isoform of the human thromboxane A2 receptor: A specific role for nitric oxide signalling” (Biochimica et Biophysica Acta, 2007).
Numbering of substitutions follows the chain as printed.

Columns and labels:
TPα = molecular target: T1, TPα (Homo sapiens, UniProt P21731); test: Intracellular calcium mobilization, HEK.TPα cells; assay type: cell-based; settings: HEK.TPα
T1 construct: expressed in transfected cells
T1 sequence (P21731 1-343): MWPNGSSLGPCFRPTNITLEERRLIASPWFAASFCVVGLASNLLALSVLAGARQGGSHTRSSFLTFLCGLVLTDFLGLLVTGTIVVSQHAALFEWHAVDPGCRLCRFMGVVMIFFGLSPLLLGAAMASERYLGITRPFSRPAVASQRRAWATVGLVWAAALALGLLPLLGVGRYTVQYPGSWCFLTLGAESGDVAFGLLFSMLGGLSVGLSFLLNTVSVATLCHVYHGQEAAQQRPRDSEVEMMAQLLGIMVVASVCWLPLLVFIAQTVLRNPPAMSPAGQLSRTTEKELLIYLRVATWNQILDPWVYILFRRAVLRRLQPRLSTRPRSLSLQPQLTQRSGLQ
Protocol: Measurement of intracellular calcium mobilization ([Ca^2+]i) in FURA2/AM preloaded HEK 293 cell lines (2 × 10^6 cells/dish), each transiently co-transfected with pADVA (10 μg), and pCMV:Gαq (25 μg), was carried out as previously described. To investigate the effect of GRK2/βARK1 on TP-mediated [Ca^2+]i mobilization, HEK.TPα or HEK.TPβ cells (2 × 10^6 cells/dish) were co-transfected with pADVA (10 μg), pCMV:Gαq (25 μg) along with pRK5:βARK1^495–689 (25 μg), encoding a dominant negative form of GRK2/βARK1[39]. Approximately 48 h post-transfection, cells were harvested by scraping, washed twice in ice-cold PBS and resuspended in HBSSHB (modified Ca^2+/Mg^2+-free Hank's buffered salt solution, containing […], pH 7.67, 0.1% bovine serum albumin (BSA)) buffer at 10^7 cells/ml and incubated in the dark with 5 μM FURA2/AM for 45 min at 37 °C. Cells were collected by centrifugation (900×g, 5 min), washed once in an equal volume of HBSSHB, and were finally resuspended in HBSSHB buffer at 10^7 cells/ml and kept at room temperature in the dark for 40 min. For each measurement of [Ca^2+]i mobilization, aliquots of cells were diluted to 0.825 × 10^6 cells/ml in HBSSHB, 1 mM CaCl2 and FURA2 fluorescence was recorded (2 ml aliquots of cells) at 37^ °C with gentle stirring with a Perkin Elmer-Cetus LS50-B spectrofluorometer at excitation wavelengths of 340 nm and 380 nm and emission wavelength of 510 nm, respectively.
[…] To assess agonist-mediated homologous desensitization, cells (0.825 × 10^6 cells/ml; 2 ml per assay) were stimulated with 1 μM U46619 (Primary stimulation) or, as a control, with the vehicle for 4 min; thereafter, cells were collected by centrifugation (900×g, 5 min); were washed twice in 2 ml HBSSHB, 1 mM CaCl2; and finally resuspended in 2 ml HBSSHB,1 mM CaCl2 and were left to recover over various time intervals (ranging from 0 to 60 min); thereafter, cells re-stimulated with 1 μM U46619 (Secondary stimulation) and changes in [Ca^2+]i mobilization were monitored as a function of time. To assess the role of protein kinase (PK) A, PKC or PKG on U46619-mediated desensitization of TPα signalling, cells were pre-incubated with the PKA inhibitor H-89 (10 μM), the PKC inhibitor GF 109203X (50 nM) or the PKG inhibitor KT 5823 (50 nM), for 15 min and respective kinase inhibitors were maintained throughout the primary/secondary U46619-stimulations and during the washes.
The vehicle had no effect on U46619-mediated [Ca^2+]i mobilization. Calibration of the signal was performed in each sample by adding 0.2% Triton X-100 to obtain the maximal fluorescence ratio (Rmax) and then 1 mM EGTA to obtain the minimal fluorescence ratio (Rmin). The ratio of the fluorescence at 340 nm to that at 380 nm is a measure of [Ca^2+]i, which assumes a Kd of 225 nM Ca^2+ for FURA2/AM. The results presented in the figures are representative data from at least three or four independent experiments and are plotted as changes in Ca^2+i mobilized (Δ[Ca^2+]i (nM)) as a function of time (s) upon ligand stimulation. Changes in [Ca^2+]i mobilization were determined by measuring peak rises in [Ca^2+]i mobilized (Δ[Ca^2+]i) and were calculated as mean changes in Δ[Ca^2+]i ± S.E.M. (nM).

TPα^S340A = molecular target: T2, TPα^S340A (Homo sapiens, UniProt P21731, S340A); test: Intracellular calcium mobilization, HEK.TPα^S340A cells; assay type: cell-based
T2 construct: expressed in transfected cells
T2 sequence (P21731 1-343 S340A): T1 sequence (P21731 1-343) with S340A
Protocol: Measurement of intracellular calcium mobilization ([Ca^2+]i) in FURA2/AM preloaded HEK 293 cell lines (2 × 10^6 cells/dish), each transiently co-transfected with pADVA (10 μg), and pCMV:Gαq (25 μg), was carried out as previously described. To investigate the effect of GRK2/βARK1 on TP-mediated [Ca^2+]i mobilization, HEK.TPα or HEK.TPβ cells (2 × 10^6 cells/dish) were co-transfected with pADVA (10 μg), pCMV:Gαq (25 μg) along with pRK5:βARK1^495–689 (25 μg), encoding a dominant negative form of GRK2/βARK1[39]. […] For each measurement of [Ca^2+]i mobilization, aliquots of cells were diluted to 0.825 × 10^6 cells/ml in HBSSHB, 1 mM CaCl2 and FURA2 fluorescence was recorded (2 ml aliquots of cells) at 37^ °C with gentle stirring with a Perkin Elmer-Cetus LS50-B spectrofluorometer at excitation wavelengths of 340 nm and 380 nm and emission wavelength of 510 nm, respectively.
Cells were stimulated with the TP agonist U46619 (1 μM) and changes in [Ca^2+]i mobilization were monitored as a function of time. […]
The vehicle had no effect on U46619-mediated [Ca^2+]i mobilization. Calibration of the signal was performed in each sample by adding 0.2% Triton X-100 to obtain the maximal fluorescence ratio (Rmax) and then 1 mM EGTA to obtain the minimal fluorescence ratio (Rmin). […]

- Δ[Ca2+]i, U46619-induced (TPα; + GRK^DN (βARK1^495–689), primary 1 μM U46619): 150 ± 7.5 nM
- Δ[Ca2+]i, U46619-induced (TPα; + GRK^DN, secondary 1 μM U46619 at 15 min): 0 nM
- Δ[Ca2+]i, U46619-induced (TPα; primary stimulation, 1 μM U46619 4 min): 174 ± 8.8 nM
- Δ[Ca2+]i, U46619-induced (TPα; secondary stimulation 1 μM U46619 at 15 min after primary, after washout): 0 nM
- Δ[Ca2+]i, U46619-induced (TPα; secondary stimulation 1 μM U46619 at 60 min after primary, after washout): 0 nM
- Δ[Ca2+]i, U46619-induced (TPα; vehicle as primary stimulation, washout, 1 μM U46619 at 60 min): 191.5 ± 25.5 nM
- Δ[Ca2+]i, U46619-induced (TPα; − GRK^DN (pRK5 control), primary 1 μM U46619): 165 ± 9 nM
- Δ[Ca2+]i, U46619-induced (TPα; − GRK^DN, secondary 1 μM U46619 at 15 min): 0 nM
- Δ[Ca2+]i, U46619-induced (TPα^S340A; primary 1 μM U46619 4 min): 180 ± 6.1 nM
- Δ[Ca2+]i, U46619-induced (TPα^S340A; secondary 1 μM U46619 at 15 min): 0 nM
Structure (SMILES): CCCCC[C@H](O)/C=C/[C@@H]1[C@@H](C/C=C\CCCC(=O)O)[C@H]2CO[C@@H]1C2 [U46619]
